Where a name gives a salt, the structure may show the parent alone.
What was measured:
cardiac microtissues [1] = assay: ATP depletion (CellTiter Glo Luminescent Cell Viability Assay) in cardiac microtissues; format: cell-based, human; details: the concentration is the IC30 of ATP depletion, or cell death caused
Method: Cellular ATP concentrations were also assessed using the CellTiter Glo® Luminescent Cell Viability Assay as per the manufacturer’s instructions (Promega).

[2] = ref FDA label, cited from earlier work; for Structural cardiotoxin?: FDA label references heart failure or a decrease in left ventricular ejection fraction; for Functional cardiotoxin?: compound annotation
cardiac microtissues [3] = assay: Transcriptomic profiling (mRNA-seq) and DESeq2 differential gene expression analysis in cardiac microtissues; details: for number of significant differentially expressed genes, 6hr high / number of significant differentially expressed genes, 6hr low / number of significant differentially expressed genes, 48hr high / number of significant differentially expressed genes, 48hr low / number of significant differentially expressed genes, 72hr high / number of significant differentially expressed genes, 72hr low: absolute log2(Fold-Change) > 1, FDR p ≤ 0.05; for number of significant differentially expressed genes, 6hr high / number of significant differentially expressed genes, 48hr high / number of significant differentially expressed genes, 72hr high: high concentration; for number of significant differentially expressed genes, 6hr low / number of significant differentially expressed genes, 48hr low / number of significant differentially expressed genes, 72hr low: low concentration

| SMILES | Transcriptomic high concentration (µM) = IC30 of ATP depletion (cardiac microtissues [1]) | Structural cardiotoxin? [2] | Functional cardiotoxin? [2] | number of significant differentially expressed genes, 6hr high (cardiac microtissues [3]) | number of significant differentially expressed genes, 6hr low (cardiac microtissues [3]) | number of significant differentially expressed genes, 48hr high (cardiac microtissues [3]) | number of significant differentially expressed genes, 48hr low (cardiac microtissues [3]) | number of significant differentially expressed genes, 72hr high (cardiac microtissues [3]) | number of significant differentially expressed genes, 72hr low (cardiac microtissues [3]) | impact on gene expression profiles (cardiac microtissues [3]; cardiac microtissues, all treatments) |
| --- | --- | --- | --- | --- | --- | --- | --- | --- | --- | --- |
| COc1cccc2c1C(=O)c1c(O)c3c(c(O)c1C2=O)C[C@@](O)(C(=O)CO)C[C@@H]3O[C@H]1C[C@H](N)[C@H](O)[C@H](C)O1 [Doxorubicin HCl] | 0.36 µM | Y | Y | 17 | 26 | 5 | 5 | 4 | 5 | low impact on gene expression profiles |
| CS(=O)(=O)CCNCc1ccc(-c2ccc3ncnc(Nc4ccc(OCc5cccc(F)c5)c(Cl)c4)c3c2)o1 [Lapatinib] | 5.53 µM | Y | Y | 27 | 17 | 13 | 40 | 29 | 18 |  |

From article PMC11213733, “Computational approaches identify a transcriptomic fingerprint of drug-induced structural cardiotoxicity” (Cell Biology and Toxicology, 2024)
